Experimental data published in patent US20250333421A1, “PYRIDAZINES OR 1,2,4-TRIAZINES SUBSTITUTED BY SPIROCYCLIC AMINES” (Janssen Pharmaceutica NV, priority 2021, published 2025).

What was measured:
MOLM14 cells = assay: Proliferation assay (spheroid assay) in MOLM14; assay type: cell-based; conditions: Homo sapiens, MOLM-14, 192 h; MOLM14 (MLL-AF9), 8 days, confluence as measure of spheroid size; read-out: spheroid assay_OneTime MOLM14 IC50
Description: (§1) The anti-proliferative effect of menin/MLL protein/protein interaction inhibitor test compounds was assessed in human leukemia cell lines. The cell line MOLM14 harbors a MLL translocation and expresses the MLL fusion proteins MLL-AF9, respectively, as well as the wildtype protein from the second allele. […] KO-52 was used as a control cell line containing two MLL (KMT2A) wildtype alleles in order to exclude compounds that display general cytotoxic effects.
MOLM14 cells were cultured in RPMI-1640 (Sigma Aldrich) supplemented with 10% heat-inactivated fetal bovine serum (HyClone), 2 mM L-glutamine (Sigma Aldrich) and 50 µg/ml gentamycin (Gibco). KO-52 cell lines were propagated in alpha-MEM (Sigma Aldrich) supplemented with 20% heat-inactivated fetal bovine serum (HyClone), 2 mM L-glutamine (Sigma Aldrich) and 50 µg/ml gentamycin (Gibco).
In order to assess the anti-proliferative effects, 200 MOLM14 cells, or 300 KO-52 cells were seeded in 200 μl media per well in 96-well round bottom, ultra-low attachment plates (Costar, catalogue number 7007). Cell seeding numbers were chosen based on growth curves to ensure linear growth throughout the experiment. Test compounds were added at different concentrations and the DMSO content was normalized to 0.3%. Cells were incubated for 8 days at 37° C. and 5% CO2. Spheroid like growth was measured in real-time by live-cell imaging (IncuCyteZOOM, Essenbio, 4× objective) acquiring images at day 8. Confluence (%) as a measure of spheroid size was determined using an integrated analysis tool.
In order to determine the effect of the test compounds over time, the confluence in each well as a measure of spheroid size, was calculated. Confluence of the highest dose of a reference compound was used as baseline for the LC (Low control) and the confluence of DMSO treated cells was used as 0% cytotoxicity (High Control, HC).
Absolute IC50 values were calculated as percent change in confluence as follows:
LC=Low Control: cells treated with e.g. 1 μM of the cytotoxic agent staurosporin, or e.g. cells treated with a high concentration of an alternative reference compound
GraphPad Prism (version 7.00) was used to calculate the IC50. Dose-response equation was used for the plot of % Effect vs Log10 compound concentration with a variable slope and fixing the maximum to 100% and the minimum to 0%.

Menin/MLL = molecular target: T1, Menin/MLL (Homo sapiens, UniProt O00255, T541A); assay: Menin/MLL homogenous time-resolved fluorescence (HTRF) assay; assay type: binding; conditions: 30 min incubation of test compound with terbium chelate-labeled menin; FITC-MBM1 peptide
T1 construct: Menin (a.a 1-610-6xhis tag)
T1 sequence (O00255 with tags, fused parts or gaps T541A): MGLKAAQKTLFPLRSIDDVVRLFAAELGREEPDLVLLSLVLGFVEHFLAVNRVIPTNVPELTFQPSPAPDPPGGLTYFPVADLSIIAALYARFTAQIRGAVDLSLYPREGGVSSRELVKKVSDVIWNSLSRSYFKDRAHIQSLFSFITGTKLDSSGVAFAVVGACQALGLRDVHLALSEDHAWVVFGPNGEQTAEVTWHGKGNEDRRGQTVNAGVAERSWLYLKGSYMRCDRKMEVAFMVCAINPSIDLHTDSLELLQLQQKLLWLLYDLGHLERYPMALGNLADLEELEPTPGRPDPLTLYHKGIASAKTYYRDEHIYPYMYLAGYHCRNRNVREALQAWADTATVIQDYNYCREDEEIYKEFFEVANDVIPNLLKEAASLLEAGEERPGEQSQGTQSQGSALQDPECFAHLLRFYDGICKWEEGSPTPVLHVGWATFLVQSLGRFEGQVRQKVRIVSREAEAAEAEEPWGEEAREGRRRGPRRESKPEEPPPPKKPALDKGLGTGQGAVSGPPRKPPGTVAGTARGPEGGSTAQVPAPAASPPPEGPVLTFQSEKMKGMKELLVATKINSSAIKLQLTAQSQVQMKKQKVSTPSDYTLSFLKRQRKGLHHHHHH
Description: 1) Menin/MLL homogenous time-resolved fluorescence (HTRF) assay
To an untreated, white 384-well microtiter plate was added 40 nL 200X test compound in DMSO and 4 μL 2X terbium chelate-labeled menin (vide infra for preparation) in assay buffer (40 mM Tris-HCl, pH 7.5, 50 mM NaCl, 1 mM DTT (dithiothreitol) and 0.05% Pluronic F-127). After incubation of test compound and terbium chelate-labeled menin for 30 min at ambient temperature, 4 μL 2X FITC-MBM1 peptide (FITC-β-alanine-SARWRFPARPGT-NH2 (SEQ ID NO: 2)) (“FITC” means fluorescein isothiocyanate) in assay buffer was added, the microtiter plate centrifuged at 1000 rpm for 1 min and the assay mixtures incubated for 15 min at ambient temperature. The relative amount of menin FITC--MBM1 complex present in an assay mixture is determined by measuring the homogenous time-resolved fluorescence (HTRF) of the terbium/FITC donor/acceptor fluorphore pair using an EnVision microplate reader (ex. 337 nm/terbium em. 490 nm/FITC em. 520 nm) at ambient temperature. The degree of fluorescence resonance energy transfer (the HTRF value) is expressed as the ratio of the fluorescence emission intensities of the FITC and terbium fluorophores (F^em 520 nm/F^em 490 nm). The final concentrations of reagents in the binding assay are 200 pM terbium chelate-labeled menin, 75 nM FITC-MBM1 peptide and 0.5% DMSO in assay buffer. Dose-response titrations of test compounds are conducted using an 11 point, four-fold serial dilution scheme, starting typically at 10 μM.
Compound potencies were determined by first calculating % inhibition at each compound concentration according to equation 1: […]
Where LC and HC are the HTRF values of the assay in the presence or absence of a saturating concentration of a compound that competes with FITC-MBM1 for binding to menin, and HTRF^compound is the measured HTRF value in the presence of the test compound. HC and LC HTRF values represent an average of at least 10 replicates per plate.
Where Bottom and Top are the lower and upper asymptotes of the dose-response curve, respectively, IC50 is the concentration of compound that yields 50% inhibition of signal and h is the Hill coefficient. IC50 values below 0.1 nM in the HTRF assay were reported as 0.1 nM in the Table below (detection limit).
Preparation of Terbium cryptate labeling of Menin: Menin (a.a 1-610-6xhis tag, 2.3 mg/mL in 20 mM Hepes (2-[4-(2-Hydroxyethyl)-1-piperazinyl]ethane sulfonic acid), 80 mM NaCl, 5 mM DTT (Dithiothreitol), pH 7.5) was labeled with terbium cryptate as follows. 200 μg of Menin was buffer exchanged into lx Hepes buffer. 6.67 μM Menin was incubated with 8-fold molar excess NHS (N-hydroxysuccinimide)-terbium cryptate for 40 minutes at room temperature. Half of the labeled protein was purified away from free label by running the reaction over a NAP5 column with elution buffer (0.1M Hepes, pH 7+0.1% BSA (bovine serum albumin)). The other half was eluted with 0.1 M phosphate buffered saline (PBS), pH7. 400 μl of eluent was collected for each, aliquoted and frozen at −80° C. The final concentration of terbium-labeled Menin protein was 115 μg/mL in Hepes buffer and 85 μg/mL in PBS buffer, respectively.

KO-52 cells = assay: Proliferation assay (spheroid assay) in KO-52 control cell line; assay type: cell-based; conditions: Homo sapiens, 192 h; KO-52 (MLL wildtype control), 8 days, confluence as measure of spheroid size; read-out: spheroid assay_OneTime KO-52 IC50
Description: as §1
MOLM14 cells were cultured in RPMI-1640 (Sigma Aldrich) supplemented with 10% heat-inactivated fetal bovine serum (HyClone), 2 mM L-glutamine (Sigma Aldrich) and 50 µg/ml gentamycin (Gibco). […]
In order to assess the anti-proliferative effects, 200 MOLM14 cells, or 300 KO-52 cells were seeded in 200 μl media per well in 96-well round bottom, ultra-low attachment plates (Costar, catalogue number 7007). […] Spheroid like growth was measured in real-time by live-cell imaging (IncuCyteZOOM, Essenbio, 4× objective) acquiring images at day 8. Confluence (%) as a measure of spheroid size was determined using an integrated analysis tool.
In order to determine the effect of the test compounds over time, the confluence in each well as a measure of spheroid size, was calculated. […]
Absolute IC50 values were calculated as percent change in confluence as follows: […]

IC50 (MOLM14 cells): 20 nM | IC50 (Menin/MLL): 0.376 nM
SMILES: CCN(C(=O)c1cc(F)ccc1Oc1nncnc1N1CCC2(C1)CN(C(CCCN(C)CCOC(F)(F)F)C(C)C)C2)C(C)C (single isomer, unassigned) [Compound 2]
IC50 (KO-52 cells): 14600 nM
